Source: patent publication US12240812B2, “Compound for inhibiting PGE2/EP4 signaling transduction inhibiting, preparation method therefor, and medical uses thereof” (Keythera (Suzhou) Pharmaceuticals Co. Ltd., priority 2019, dated 2025)

System: PGE2/EP4 signal transduction in MCF7 cells
Assay: Determination of MCF7 cAMP (PGE2-stimulated, HTRF)
Assay type: cell-based
Details: Homo sapiens; MCF7 cells, 10 nM PGE2 stimulation, cAMP HTRF; read-out: MCF7 cAMP IC50
Procedure: • a) MCF7 cells (ATCC, 6000 cells/well/40 μl) were inoculated into a 384-well cell culture plate containing a medium (DMEM containing 10% FBS and 1×PS), and incubated overnight at 37° C. and 5% CO2. • b) The medium was removed, 40 μl/well of serum-free medium was added, and the cells were incubated at 37° C. and 5% CO2 for 5 hours. • c) The medium was replaced with 18 μL/well of HBSS buffer (Hepes 20 mM, 0.1% BSA, 500 μM IBMX). • d) The compound in DMSO was diluted (1/5 dilution, 9+0 dose). • e) 2 μL of the compound in d) was added to 98 μL of HBSS buffer. • f) 1 μL/well of the diluted compound in e) was added to the cells, with a final starting concentration of 1 μM, and the cells were incubated at 37° C. for 1 hour. • g) The cells were stimulated with 1 μL/well of PGE2 (10 mM DMSO stock solution) (final concentration: 10 nM, and DMSO final concentration: 0.2%), and incubated at 37° C. for 30 minutes. • h) After the incubation, 10 μL/well of cAMP-d2 and 10 μL/well of anti-cAMP were added, RT 1 h. • i) HTRF signals (665 nm/615 nm) were read on Envision. Data Analysis: • High control: 1 μM E7046 • Low control: DMSO • Background: 30 μL/well of lysis buffer+10 μL/well of anti-cAMP • Analytical data: original date—background Inhibition %: 100−100×(high control−analytical data)/(high control−low control)

Compound | IC50 [µM]
O=C(NC1(C23CC(C(=O)O)(C2)C3)CC1)c1cccc2ccn(Cc3ccc(-c4cnn(CCCO)c4)cn3)c12 [Compound 16, 3-(1-(1-((5-(1-(3-Hydroxypropyl)-1H-pyrazol-4-yl)pyridin-2-yl)methyl)-1H-indole-7-carboxamido)cyclopropyl)bicyclo[1.1.1]pentane-1-carboxylic acid] | 0.215
C[C@H](NC(=O)c1cccc2ccn(Cc3cc4ccccc4o3)c12)C12CC(C(=O)O)(C1)C2 [Compound 20-5, (S)-3-(1-(1-(benzofuran-2-ylmethyl)-1H-indole-7-carboxamido)ethyl)bicyclo[1.1.1]pentane-1-carboxylic acid] | 0.014
O=C(NC1(C23CC(C(=O)O)(C2)C3)CC1)c1cccc2ccn(Cc3ccc4ccccc4n3)c12 [Compound 3, 3-(1-(1-(Quinolin-2-ylmethyl)-1H-indole-7-carboxamido)cyclopropyl)bicyclo[1.1.1]pentane-1-carboxylic acid] | 0.0078
O=C(NC1(C23CC(C(=O)O)(C2)C3)CC1)c1cccc2ccn(Cc3ccc(-c4ccncc4)cn3)c12 [Compound 13, 3-(1-(1-([3,4′-Bipyridin]-6-ylmethyl)-1H-indole-7-carboxamido)cyclopropyl)bicyclo[1.1.1]pentane-1-carboxylic acid] | 0.0115
O=C(NC1(C23CC(C(=O)O)(C2)C3)CC1)c1cccc2ccn(Cc3ccc(-c4ccccc4CO)cn3)c12 [Compound 19, 3-(1-(1-((5-(2-(Hydroxymethyl)phenyl)pyridin-2-yl)methyl)-1H-indole-7-carboxamido)cyclopropyl)bicyclo[1.1.1]pentane-1-carboxylic acid] | 0.106
Cn1cc(-c2ccc(Cn3ccc4cccc(C(=O)NC5(C67CC(C(=O)O)(C6)C7)CC5)c43)nc2)cn1 [Compound 14, 3-(1-(1-((5-(1-Methyl-1H-pyrazol-4-yl)pyridin-2-yl)methyl)-1H-indole-7-carboxamido)cyclopropyl)bicyclo[1.1.1]pentane-1-carboxylic acid] | 0.0244
O=C(NC1(C23CC(C(=O)O)(C2)C3)CC1)c1cccc2ccn(Cc3ccc(-c4ccccc4)nc3)c12 [Compound 5, 3-(1-(1-((6-Phenylpyridin-3-yl)methyl)-1H-indole-7-carboxamido)cyclopropyl)bicyclo[1.1.1]pentane-1-carboxylic acid] | 0.0055
O=C(NC1(C23CC(C(=O)O)(C2)C3)CC1)c1cccc2ccn(Cc3ccc(-c4ccccn4)cn3)c12 [Compound 11, 3-(1-(1-([2,3′-Bipyridin]-6′-ylmethyl)-1H-indole-7-carboxamido)cyclopropyl)bicyclo[1.1.1]pentane-1-carboxylic acid] | 0.03
O=C(NC1(C23CC(C(=O)O)(C2)C3)CC1)c1cccc2ccn(Cc3ccc(-c4cccnc4)cn3)c12 [Compound 12, 3-(1-(1-([3,3′-Bipyridin]-6-ylmethyl)-1H-indole-7-carboxamido)cyclopropyl)bicyclo[1.1.1]pentane-1-carboxylic acid] | 0.0629
O=C(NC1(C23CC(C(=O)O)(C2)C3)CC1)c1cccc2ccn(Cc3ccc(-c4cn[nH]c4)cn3)c12 [Compound 15, 3-(1-(1-((5-(1H-Pyrazol-4-yl)pyridin-2-yl)methyl)-1H-indole-7-carboxamido)cyclopropyl) bicyclo[1.1.1]pentane-1-carboxylic acid] | 0.0145
O=C(NC1(C23CC(C(=O)O)(C2)C3)CC1)c1cccc2ccn(Cc3ccc(Cl)cc3)c12 [Compound 4, 3-(1-(1-(4-Chlorobenzyl)-1H-indole-7-carboxamido)cyclopropyl)bicyclo[1.1.1]pentane-1-carboxylic acid] | 0.061
O=C(NC1(C23CC(C(=O)O)(C2)C3)CC1)c1cc(Cl)cc2ccn(Cc3ccc(C(F)(F)F)cc3)c12 [Compound 8, 3-(1-(5-Chloro-1-(4-(trifluoromethyl)benzyl)-1H-indole-7-carboxamido)cyclopropyl)bicyclo[1.1.1]pentane-1-carboxylic acid] | 0.0029
C[C@@H](NC(=O)c1cccc2ccn(Cc3cc4ccccc4o3)c12)C12CC(C(=O)O)(C1)C2 [Compound 20-6, (R)-3-(1-(1-(benzofuran-2-ylmethyl)-1H-indole-7-carboxamido)ethyl)bicyclo[1.1.1]pentane-1-carboxylic acid] | 0.078
O=C(NC1(C23CC(C(=O)O)(C2)C3)CC1)c1cccc2ccn(Cc3ccc(C4CC4)cn3)c12 [Compound 18, 3-(1-(1-((5-Cyclopropylpyridin-2-yl)methyl)-1H-indole-7-carboxamido)cyclopropyl)bicyclo[1.1.1]pentane-1-carboxylic acid] | 0.0629
O=C(NC1(C23CC(C(=O)O)(C2)C3)CC1)c1cccc2ccn(Cc3ccc(N4CCCC(O)C4)cn3)c12 (centres unmarked) [Compound 17, 3-(1-(1-((5-(3-Hydroxypiperidin-1-yl)pyridin-2-yl)methyl)-1H-indole-7-carboxamido)cyclopropyl)bicyclo[1.1.1]pentane-1-carboxylic acid] | 0.035
O=C(NC1(C23CC(C(=O)O)(C2)C3)CC1)c1cccc2ccn(Cc3ccc(N4CCOCC4)cn3)c12 [Compound 10, 3-(1-(1-((5-Morpholinopyridin-2-yl)methyl)-1H-indole-7-carboxamido)cyclopropyl)bicyclo[1.1.1]pentane-1-carboxylic acid] | 0.072
CC(NC(=O)c1cccc2ccn(Cc3cc4ccccc4o3)c12)C12CC(C(=O)O)(C1)C2 (racemic) [Compound 20, 3-(1-(1-(Benzofuran-2-ylmethyl)-1H-indole-7-carboxamido)ethyl)bicyclo[1.1.1]pentane-1-carboxylic acid] | 0.034

The remaining lines, values ahead:

IC50 [µM] | Compound
0.0014 | O=C(NC1(C23CC(C(=O)O)(C2)C3)CC1)c1cccc2ccn(Cc3cc4ccc(F)cc4o3)c12 [Compound 22, 3-(1-(1-((6-Fluorobenzofuran-2-yl)methyl)-1H-indole-7-carboxamido)cyclopropyl)bicyclo[1.1.1]pentane-1-carboxylic acid]
0.0015 | [2H]C(c1cc2ccccc2o1)n1ccc2cccc(C(=O)NC3(C45CC(C(=O)O)(C4)C5)CC3)c21 (centres unmarked) [Compound 29, 3-(1-(1-(Benzofuran-2-ylmethyl-d)-1H-indole-7-carboxamido)cyclopropyl)bicyclo[1.1.1]pentane-1-carboxylic acid]
0.00075 | O=C(NC1(C23CC(C(=O)O)(C2)C3)CC1)c1cc(F)cc2ccn(Cc3cc4ccccc4o3)c12 [Compound 32]
0.0011 | [2H]C([2H])(c1cc2ccccc2o1)n1ccc2cccc(C(=O)NC3(C45CC(C(=O)O)(C4)C5)CC3)c21 [Compound 30, 3-(1-(1-(1-Benzofuran-2-ylmethyl-d2)-1H-indole-7-carboxamido)cyclopropyl)bicyclo[1.1.1]pentane-1-carboxylic acid]
0.012 | O=C(NC1(C23CC(C(=O)O)(C2)C3)CC1)c1cccc2ccn(Cc3nc4ccccc4s3)c12 [Compound 24, 3-(1-(1-(Benzo[d]thiazol-2-ylmethyl)-1H-indole-7-carboxamido)cyclopropyl)bicyclo[1.1.1]pentane-1-carboxylic acid]
0.06 | CC(NC(=O)c1cncc2ccn(Cc3cc4ccccc4o3)c12)C12CC(C(=O)O)(C1)C2 (racemic) [Compound 26, 3-(1-(1-(Benzofuran-2-ylmethyl)-1H-pyrrolo[3,2-c]pyridine-7-carboxamido)ethyl)bicyclo[1.1.1]pentane-1-carboxylic acid]
0.03 | C[C@H](NC(=O)c1cncc2ccn(Cc3cc4ccccc4o3)c12)C12CC(C(=O)O)(C1)C2 [Compound 26-1, (S)-3-(1-(1-(benzofuran-2-ylmethyl)-1H-pyrrolo[3,2-c]pyridine-7-carboxamido)ethyl)bicyclo[1.1.1]pentane-1-carboxylic acid]
> 0.1 | C[C@@H](NC(=O)c1cncc2ccn(Cc3cc4ccccc4o3)c12)C12CC(C(=O)O)(C1)C2 [Compound 26-2, (R)-3-(1-(1-(benzofuran-2-ylmethyl)-1H-pyrrolo[3,2-c]pyridine-7-carboxamido)ethyl)bicyclo[1.1.1]pentane-1-carboxylic acid]
0.0012 | [2H]C1([2H])C([2H])([2H])C1(NC(=O)c1cccc2ccn(Cc3cc4ccccc4o3)c12)C12CC(C(=O)O)(C1)C2 [Compound 31]
0.0012 | O=C(NC1(C23CC(C(=O)O)(C2)C3)CC1)c1cncc2ccn(Cc3cc4cc(F)ccc4o3)c12 [Compound 27, 3-(1-(1-((5-Fluorobenzofuran-2-yl)methyl)-1H-pyrrolo[3,2-c]pyridine-7-carboxamido)cyclopropyl)bicyclo[1.1.1]pentane-1-carboxylic acid]
0.0015 | O=C(NC1(C23CC(C(=O)O)(C2)C3)CC1)c1cncc2ccn(Cc3cc4cc(C(F)(F)F)ccc4o3)c12 [Compound 28, 3-(1-(1-((5-(Trifluoromethyl)benzofuran-2-yl)methyl)-1H-pyrrolo[3,2-c]pyridine-7-carboxamido)cyclopropyl)bicyclo[1.1.1] pentane-1-carboxylic acid]
0.008 | O=C(NC1(C23CC(C(=O)O)(C2)C3)CC1)c1cccc2ccn(Cc3nc4ccccc4o3)c12 [Compound 23, 3-(1-(1-(Benzo[d]oxazol-2-ylmethyl)-1H-indole-7-carboxamido)cyclopropyl)bicyclo[1.1.1]pentane-1-carboxylic acid]
